Laboratory results: the NIST ThermoML archive (doi:10.1016/j.jct.2012.11.014)
Numbers after ± are expanded uncertainties.

Test: xn = mol fraction of the nth substance listed
Details: 101 kPa, Liquid; for speed of sound: Frequency=2 MHz, Linear variable-path acoustic interferometer; for viscosity: Oscillating disk viscometry; for mass density: Vibrating tube method

CC(=O)[O-].C[NH+](C)C [trimethylammonium acetate] + C[S+](C)[O-]
Details | mass density, 298.15 K [kg/m3] | mass density, 303.15 K [kg/m3] | speed of sound, 298.15 K [m/s] | speed of sound, 303.15 K [m/s] | viscosity, 298.15 K [mPa·s] | viscosity, 303.15 K [mPa·s]
x1 = 0.0159 | 1094.86 ± 1 | 1092.06 ± 1 | 1497 ± 3 | 1473 ± 3 | 2.03 ± 0.13 | 1.85 ± 0.12
x1 = 0.0656 | 1093.33 ± 1 | 1090.58 ± 1 | 1501 ± 3 | 1477 ± 3 | 2.16 ± 0.13 | 1.99 ± 0.12
x1 = 0.1182 | 1091.46 ± 1 | 1088.73 ± 1 | 1505 ± 3 | 1480 ± 3 | 2.29 ± 0.14 | 2.12 ± 0.13
x1 = 0.1693 | 1089.27 ± 1 | 1086.54 ± 1 | 1509 ± 3 | 1484 ± 3 | 2.41 ± 0.15 | 2.23 ± 0.14
x1 = 0.2333 | 1086.77 ± 1 | 1083.95 ± 1 | 1513 ± 3 | 1488 ± 3 | 2.55 ± 0.16 | 2.37 ± 0.15
x1 = 0.2857 | 1084.45 ± 1 | 1081.41 ± 1 | 1517 ± 3 | 1492 ± 3 | 2.66 ± 0.16 | 2.47 ± 0.15
x1 = 0.3408 | 1081.92 ± 1 | 1078.78 ± 1 | 1521 ± 3 | 1495 ± 3 | 2.77 ± 0.17 | 2.56 ± 0.16
x1 = 0.3877 | 1079.63 ± 1 | 1076.45 ± 1 | 1524 ± 3 | 1498 ± 3 | 2.84 ± 0.18 | 2.63 ± 0.16
x1 = 0.4358 | 1077.39 ± 1 | 1074.03 ± 1 | 1527 ± 3 | 1501 ± 3 | 2.91 ± 0.18 | 2.7 ± 0.17
x1 = 0.5129 | 1073.63 ± 1 | 1070.25 ± 1 | 1532 ± 3 | 1505 ± 3 | 3 ± 0.19 | 2.78 ± 0.17
x1 = 0.5506 | 1071.66 ± 1 | 1068.52 ± 1 | 1534 ± 3 | 1507 ± 3 | 3.03 ± 0.19 | 2.81 ± 0.17
x1 = 0.5959 | 1069.68 ± 1 | 1066.19 ± 1 | 1536 ± 3 | 1509 ± 3 | 3.05 ± 0.19 | 2.83 ± 0.18
x1 = 0.6852 | 1065.62 ± 1 | 1062.02 ± 1 | 1540 ± 3 | 1512 ± 3 | 3.08 ± 0.19 | 2.82 ± 0.18
x1 = 0.7487 | 1062.84 ± 1 | 1059.21 ± 1 | 1542 ± 3 | 1513 ± 3 | 3.06 ± 0.19 | 2.8 ± 0.18
x1 = 0.8156 | 1060.15 ± 1 | 1056.44 ± 1 | 1543 ± 3 | 1514 ± 3 | 3.01 ± 0.19 | 2.75 ± 0.17
x1 = 0.8651 | 1058.27 ± 1 | 1054.43 ± 1 | 1544 ± 3 | 1515 ± 3 | 2.97 ± 0.19 | 2.65 ± 0.17
x1 = 0.9231 | 1056.26 ± 1 | 1052.36 ± 1 | 1544 ± 3 | 1515 ± 3 | 2.89 ± 0.19 | 2.55 ± 0.17
x1 = 0.961 | 1055.02 ± 1 | 1051.09 ± 1 | 1544 ± 3 | 1515 ± 3 | 2.84 ± 0.18 | 2.48 ± 0.16
x1 = 1 | 1053.85 ± 1 | 1049.87 ± 1 | 1544 ± 3 | 1514 ± 3 | 2.76 ± 0.18 | 2.37 ± 0.16
